Laboratory results taken from patent US7049116B2, “Engineered protein kinases which can utilize modified nucleotide triphosphate substrates” (Princeton University, priority 1997, dated 2006).
“Also recorded” adds a separate entry of the source.

Experiments:
[1] = tested on: NIH3T3 cells expressing v-Src; assay: Anti-phosphotyrosine blots of pyrazolopyrimidine treated NIH3T3 cells (Examples 18-19); type: cell-based; conditions: FIG. 12B two left lanes
Procedure: Anti-phosphotyrosine blots of pyrazolo pyrimidine (2-6) (25 μM) treated NIH3T3 cells expressing v-Src kinase were performed by lysing cells in modified RIPA buffer according to the method of Coussens et al. (1985) Biol. 2753-2763. Cells were also treated for various times before lysis and antiphosphotyrosine detection. Proteins were separated by 12.5% SDS-PAGE and transferred to Protran BA85 (Schleicher-Schuell). The blot was probed with the antiphosphotyrosine monoclonal antibody 4G10 (obtained from Dr. Brian Druker, Oregon Health Sciences Center) and the bound antibody was detected via enhanced chemiluminescence (Pierce) following treatment with HRP-coupled goat anti-mouse antibody (VWR) according to the manufacturer's instructions.
The assays were performed by making anti-phosphotyrosine blots of pyrazolopyrimidine (26) (25 μM) treated NIH3T3 cells expressing either v-Src or v-Src (I338G) kinases were performed by lysing cells in modified RIPA buffer according to the method of Coussens et al. (1985) Biol. 2753-2763. […]
(§4) The blot was probed with the anti-phosphotyrosine monoclonal antibody 4G10 and the bound antibody was detected via enhanced chemiluminescence (Pierce) following treatment with HRP-coupled goat-anti-mouse antibody (VWR) according to the manufacturer's instructions.

[2] = molecular target: wild-type Fyn (Homo sapiens, UniProt P06241); assay: Peptide phosphorylation assay with [γ-32P]ATP (Example 13); type: biochemical; conditions: purified kinase; read-out: IC50 for inhibition of wild-type Fyn
Text: To identify compounds that would not inhibit any existing cellular kinases, Applicant screened the panel of synthetic pyrazolo pyramidine analogs (1-6) against two closely related purified tyrosine kinases, v-Src and Fyn, in a peptide phosphorylation assay using [γ-^32P]

[3] = tested on: NIH3T3 cells expressing v-Src (I338G); assay: Anti-phosphotyrosine blots of pyrazolopyrimidine treated NIH3T3 cells (Example 19); type: cell-based
Procedure: The assays were performed by making anti-phosphotyrosine blots of pyrazolopyrimidine (26) (25 μM) treated NIH3T3 cells expressing either v-Src or v-Src (I338G) kinases were performed by lysing cells in modified RIPA buffer according to the method of Coussens et al. (1985) Biol. 2753-2763. Cells were also treated for various times (in a cell culture CO2 incubator) before lysis and anti-phosphotyrosine detection. Proteins were separated by 12.5% SDS-PAGE and transferred to Protran BA85 (Schleicher-Schuell).
as §4

[4] = tested on: WT v-Src transformed NIH-3T3 fibroblasts; assay: Microscopy of transformed fibroblasts (light microscopy, phalloidin-FITC); type: cell-based; conditions: 100 μM, 48 hours
Procedure: (§1) Non-transformed, WT v-Src transformed, and I338G v-Src transformed NIH-3T3 fibroblasts were grown in DMEM/10% BCS on tissue culture treated slides. v-Src expressing cells were treated with either 1.1% DMSO or 100 μM (^3g) in 1.1% DMSO. After forty-eight hours cells were photographed at 400× magnification on an Nikon TMS light microscope. Immediately following light microscopy, the cells were fixed for twenty minutes in 3.7% formaldehyde/PBS and permeabilized for sixty seconds in 0.2% Triton x-100 in PBS. Permeabilized cells were incubated with 200 ng/ml phalloidin-FITC/PBS for twenty minutes. Slides were rinsed with PBS and polymerized actin was visualized by fluorescence microscopy at 600× magnification on a Zeiss fluorescence microscope.

[5] = tested on: I338G v-Src transformed NIH-3T3 fibroblasts; assay: as above; type: cell-based; conditions: 100 μM, 48 hours
Procedure: as §1

[6] = molecular target: T1, PKCδ (Homo sapiens, UniProt Q05655); assay: In vitro kinase inhibition assay; type: biochemical; parameters: dose or concentration left out as unconfirmed
T1 construct: 6-His; made in house; host or cells: Bac-to-Bac baculovirus system (pFastBac B vector)
Procedure: (§2) IC50's for non-src family kinases were measured equivalently with the following exceptions. […] An optimized Abl substrate, […] (SEQ ID NO: 18), 133 mg/ml) was used for Abl assays.

[7] = tested on: I338G v-Src; assay: biochemical; parameters: species or system Rous sarcoma virus
[8] = molecular target: T2, I338G v-Src (Rous sarcoma virus subgroup A, UniProt P00524, DEL77-225/I338G); assay: biochemical
T2 construct: made in house; host or cells: E. coli DH5α (pGEX-KT)

[9] = tested on: I338G v-Src transformed NIH3T3 cells; assay: Inhibition of v-Src in NIH3T3 fibroblasts (phosphotyrosine blot); type: cell-based
Procedure: (§3) Non-transformed NIH3T3 cells, WT v-Src transformed NIH3T3 cells, and I338G v-Src transformed NIH3T3 cells were incubated at 37° C. with 1.1% DMSO or 100 μM (3g) in 1.1% DMSO. After twelve hours, the cells were washed with PBS and lysed (lysis buffer: 1% Triton x-100, 50 mM tris (pH 7.4), 2 mM EDTA, 150 mM NaCl, […], 2 mM sodium orthovanadate, 10 mg/ml leupeptin, 10 mg/ml apoprotin). The lysate was clarified by centrifugation at 13,000 rpm for fifteen minutes. Lysate protein concentrations were normalized and equal volumes of the lysate were resolved electrophoretically and analyzed for phosphotyrosine content as described above.

[10] = tested on: WT v-Src transformed NIH3T3 cells; assay: as above; type: cell-based; conditions: 100 μM, twelve hours
Procedure: as §3

[11] = molecular target: T3, PKA (Homo sapiens, UniProt P17612); assay: In vitro kinase inhibition assay; type: biochemical; conditions: concentrations up to 300 mM
T3 construct: purchased Pierce
Procedure: as §2

[12] = molecular target: T4, T339G Fyn (Homo sapiens, UniProt P06241, T342G); assay: In vitro kinase inhibition assay; type: biochemical
T4 construct: GST; made in house; host or cells: E. coli DH5α (pGEX-KT)
T4 sequence (P06241 1-534 isoform P06241-2 T339G): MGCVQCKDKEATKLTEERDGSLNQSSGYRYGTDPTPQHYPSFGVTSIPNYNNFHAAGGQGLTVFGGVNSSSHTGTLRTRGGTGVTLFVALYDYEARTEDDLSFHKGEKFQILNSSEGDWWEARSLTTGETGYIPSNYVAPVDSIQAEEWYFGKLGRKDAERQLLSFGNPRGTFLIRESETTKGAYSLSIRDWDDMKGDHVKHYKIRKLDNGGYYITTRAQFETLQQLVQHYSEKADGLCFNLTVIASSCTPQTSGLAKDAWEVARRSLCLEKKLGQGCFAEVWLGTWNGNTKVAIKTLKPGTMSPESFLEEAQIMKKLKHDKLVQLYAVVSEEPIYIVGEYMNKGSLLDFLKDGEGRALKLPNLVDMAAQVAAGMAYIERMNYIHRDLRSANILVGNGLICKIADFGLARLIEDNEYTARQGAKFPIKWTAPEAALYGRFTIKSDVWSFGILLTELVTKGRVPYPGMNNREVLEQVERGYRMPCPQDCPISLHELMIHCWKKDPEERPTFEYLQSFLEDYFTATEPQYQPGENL

T1 sequence (Q05655 whole entry): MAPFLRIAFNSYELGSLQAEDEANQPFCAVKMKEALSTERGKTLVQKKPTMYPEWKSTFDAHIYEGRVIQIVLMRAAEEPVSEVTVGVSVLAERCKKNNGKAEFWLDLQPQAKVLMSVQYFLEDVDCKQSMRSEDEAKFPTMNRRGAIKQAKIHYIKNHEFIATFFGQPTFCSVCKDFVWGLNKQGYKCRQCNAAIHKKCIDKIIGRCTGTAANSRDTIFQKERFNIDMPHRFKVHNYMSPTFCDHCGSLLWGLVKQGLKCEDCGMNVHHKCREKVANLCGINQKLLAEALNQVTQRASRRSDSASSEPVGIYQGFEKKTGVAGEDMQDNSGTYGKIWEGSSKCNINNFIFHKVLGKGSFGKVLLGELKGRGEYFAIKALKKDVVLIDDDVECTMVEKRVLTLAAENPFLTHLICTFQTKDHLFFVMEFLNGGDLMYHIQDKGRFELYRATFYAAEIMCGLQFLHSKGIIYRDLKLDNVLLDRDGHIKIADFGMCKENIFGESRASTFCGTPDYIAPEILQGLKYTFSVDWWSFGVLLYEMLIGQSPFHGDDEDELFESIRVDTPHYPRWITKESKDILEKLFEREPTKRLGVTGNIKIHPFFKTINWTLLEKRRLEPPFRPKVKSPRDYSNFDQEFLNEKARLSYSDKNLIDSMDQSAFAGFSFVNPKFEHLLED
Sequence of wild-type Fyn (P06241 whole entry, species assumed): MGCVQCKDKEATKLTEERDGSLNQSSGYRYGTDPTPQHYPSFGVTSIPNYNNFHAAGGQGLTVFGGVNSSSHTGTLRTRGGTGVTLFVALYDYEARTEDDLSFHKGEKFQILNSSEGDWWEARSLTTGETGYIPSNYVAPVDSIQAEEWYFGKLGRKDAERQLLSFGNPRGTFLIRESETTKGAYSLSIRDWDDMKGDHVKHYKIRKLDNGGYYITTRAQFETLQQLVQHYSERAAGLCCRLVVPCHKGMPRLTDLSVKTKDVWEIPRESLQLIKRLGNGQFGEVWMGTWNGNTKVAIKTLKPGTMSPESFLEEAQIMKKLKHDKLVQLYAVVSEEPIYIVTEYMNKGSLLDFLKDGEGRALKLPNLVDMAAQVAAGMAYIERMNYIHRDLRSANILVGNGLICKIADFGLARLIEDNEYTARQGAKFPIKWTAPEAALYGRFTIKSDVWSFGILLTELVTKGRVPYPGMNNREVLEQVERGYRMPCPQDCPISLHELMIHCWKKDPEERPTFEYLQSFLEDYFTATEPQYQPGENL

`CC(C)(C)n1nc(-c2ccccc2)c2c(NC(=O)C3CCCC3)ncnc21` [Analog 3b, 4-cyclopentylamido-1-tert-butyl-3-phenylpyrazolo[3,4]pyrimidine] was tested, and the phosphoprotein band pattern [1] was “does not inhibit wild type v-Src kinase”, the IC50 [2] was > 400000 nM and the “36 kDa phosphoprotein band” value ([3]; 100 μM) was “lost after treatment”. The “inhibitor concentration at which phosphorylation of the 36 kDa band reappears” value ([3]; inhibitor diluted) was < 5 pM.

In the case of `CC(C)(C)c1ccc(C(=O)Nc2ncnc3c2c(-c2ccccc2)nn3C(C)(C)C)cc1` [Analog 3g, 4-(p-tert-butyl)benzamido-1-tert-butyl-3-phenylpyrazolo[3,4-d]pyrimidine], the “polymerized actin pattern (phalloidin-FITC)” value ([4]; fluorescence microscopy) is reported as “indistinguishable from untreated WT cells”, the cell morphology ([4]; light microscopy) is reported as “prototypical rounded morphology and overlapping growth patterns of transformed cells” and the “polymerized actin pattern (phalloidin-FITC)” value ([5]; fluorescence microscopy) is reported as “defined polymerized actin strings; also recorded: selectively regain actin stress fibers”. The cell morphology ([5]; light microscopy) was “dramatic changes in cell morphology which are consistent with the reversal of transformation; also recorded: selectively acquire a flattened morphology”, the “inhibition of PKCδ” value [6] was “not detectably inhibited” and the “selectivity for engineered v-Src over WT Fyn” value ([7]; I338G v-Src vs WT Fyn) was “over 700 times”. The “selectivity for mutant v-Src as compared to wild type” value ([7]; I338G v-Src vs WT v-Src) was “at least a thousand-fold”, the IC50 [8] was 430 nM and the Ki [8] was ~400 nM. For the same compound, the mode of inhibition ([8]; Lineweaver-Burk analysis) was “competitively with respect to ATP”, the “cellular IC50 relative to the in vitro value” [9] was “roughly one-hundred times” and the “cellular level of phosphotyrosine” value ([9]; 100 μM, twelve hours) was “moderate overall decrease”. For the same compound, the “tyrosine phosphorylation of p36” value ([9]; 100 μM, twelve hours) was “dramatic diminution; also recorded: blocks p36 phosphorylation”, the IC50 ([9]; Mus musculus, NIH3T3, read-out: IC50 for p36 phosphotyrosine signal) was 50000 nM and the “tyrosine phosphorylation in WT v-Src infected cells” value [10] was “no loss of tyrosine phosphorylation”. For the same compound, the “inhibition of PKA” value [11] was “not detectably inhibited”, the IC50 [12] was 830 nM and the “selectivity for T339G Fyn over WT Fyn” value [12] was “greater than 300 fold”.
